How the values were obtained:
[1] = background statement; accelerated by heat, UV or low pH; cited from earlier work
[2] = Colour-change stability test of 2% kojic acid in an aqueous cosmetic base with sodium metabisulphite and/or propyl gallate; format: physicochemical; details: over 42 days, room temperature, 2% kojic acid aqueous base
Method: A test was conducted to measure the effect of sodium metabisulphite and propyl gallate on the stability of kojic acid in aqueous cosmetic or pharmaceutical compositions. In this regard kojic acid is known to change colour from a slight yellow to very dark yellow as it degrades, and so colour change was used as the indicator of stability vs. degradation. All samples contained 2% kojic acid in an aqueous cosmetic base. [table] Each sample was photographed and optically assessed against a 20-stage yellow colour spectrum, where 1 was a very pale straw yellow, and 20 was a dark yellow. Photographs were taken on day 1, day 7 and day 42. In between photographs, the samples were stored together at normal room temperature.

[3] = Earlier experiments on stability (discolouration) of kojic acid solutions with stabilisers; format: physicochemical; details: two month period
From the text: One useful, if obvious, solution to the problem would be to add a preservative such as sodium metabisulphite. Sodium metabisulphite is in a class of preservatives that release sulphur dioxide. […] However this option is not enough for two reasons. Firstly, two months is not sufficient shelf life for a cosmetic or pharmaceutical composition. Secondly, a preferable format for a skin lightening composition would also include one or more other lightening ingredients, such as lactic acid, niacinamide and ascorbic acid. The net effect of these ingredients may lower the pH, and accelerate the degradation of kojic acid. This has been shown in experiments to overcome the stabilising effect of sodium metabisulphite during a two month period.
It was then hypothesised that reducing agents or antioxidants may help by preventing free radical formation. Various antioxidants were tested without noticeable effect.
Researchers expected the combination to deliver better results that propyl gallate, but worse results than sodium metabisulphite alone. Instead the kojic acid solution remained completely clear for more than two months. The result is certainly not additive and therefore must be due to some previously unknown synergy between sodium metabisulphite and propyl gallate.

Row | Compound | stability of kojic acid in solution (in words) [1] | effect of the additive on stability of kojic acid (in words) [2] | stabilisation / discolouration of kojic acid solution (in words) [3]
1 | O=c1cc(CO)occ1O [kojic acid] | degrades within weeks in solution | – | –
2 | CCCOC(=O)c1cc(O)c(O)c(O)c1 [propyl gallate] | – | worsened stability slightly | –
3 | O=S([O-])S(=O)(=O)[O-].[Na+].[Na+] [sodium metabisulphite] | – | improved stability slightly | keeping discolouration to a low level for up to two months

— patent US20130171079A1, “COMPOSITION TO STABILISE KOJIC ACID” (Pangaea Laboratories Ltd., priority 2011, published 2013)
